This passage reports IC50 results from ChEMBL document CHEMBL1150623, “Two new triterpene esters from the twigs of Brachylaena ramiflora from the Madagascar rainforest” (J Nat Prod, 2002).

The term IC50 denotes the concentration needed to halve the response being measured. Read a low IC50 as higher potency.

In brackets after ≈: the same amount, converted by molar mass. Numbered stars: 1 amine (or outer) side, 2 acyl side, 3 side chain; on linkers, the order of the positions; unused ones are H or OH. Bridge positions count the residues as written; N and C are the ends. Square brackets hold non-standard residues; d marks the D form. Peptide text beside a SMILES is read from it. I, II: the chains in the order shown. Actinocin(1to9) = Cc1c2oc3c(C)ccc(C(=O)[*:2])c3nc-2c(C(=O)[*:1])c(N)c1=O; NMeV = CN[C@H](C(=O)O)C(C)C; Sar = CNCC(=O)O

In this experiment the test system is A2780. The experiment is described as follows: Cytotoxicity against human A2780 cells. It counts as functional, cell-based.
With `CCCCCCCCCCCCCCCC(=O)O[C@H]1CC[C@]2(C)[C@H]3CC=C4[C@@H]5CC(C)(C)CC[C@]5(C)CC[C@@]4(C)[C@]3(C)CC[C@H]2C1(C)C`, the IC50 was 13.4 µg/mL (≈ 20.1 µM).
In the case of `CCCCCCCCCCCCCCCC(=O)O[C@H]1CC[C@]2(C)[C@H]3CC=C4[C@@H]5[C@@H](C)[C@H](C)CC[C@@]5(C)CC[C@@]4(C)[C@]3(C)CC[C@H]2C1(C)C`, the IC50 was determined as 15.4 µg/mL (≈ 23.2 µM).
The value for `Cc1c2oc3c(C)ccc(C(=O)N[C@@H]4C(=O)N[C@H](C(C)C)C(=O)N5CCC[C@H]5C(=O)N(C)CC(=O)N(C)[C@@H](C(C)C)C(=O)O[C@@H]4C)c3nc-2c(C(=O)N[C@@H]2C(=O)N[C@H](C(C)C)C(=O)N3CCC[C@H]3C(=O)N(C)CC(=O)N(C)[C@@H](C(C)C)C(=O)O[C@@H]2C)c(N)c1=O` [DACTINOMYCIN] (I: T[dV]P[Sar][NMeV] / II: T[dV]P[Sar][NMeV]; ester I:1-I:C, II:1-II:C; linker I:N-II:N via Actinocin(1to9)) was 0.002 µg/mL (≈ 0.00159 µM); that for `C=C(C)[C@H]1CC[C@]2(C)C3CC[C@@H]4[C@@]5(C)CC[C@H](OC(=O)CCCCCCCCCCCCCCC)C(C)(C)[C@@H]5CC[C@@]4(C)[C@]3(C)CC[C@@H]12` (stereo partly drawn) [HOPENYL PALMITATE] was 11.6 µg/mL (≈ 17.4 µM); that for `CCCCCCCCCCCCCCCC(=O)O[C@H]1CC[C@]2(C)[C@H]3CC=C4[C@@H]5CCCC(C)(C)[C@@]5(C)CC[C@@]4(C)[C@]3(C)CC[C@H]2C1(C)C` [KAIRATENYL PALMITATE] was 10 µg/mL (≈ 15 µM).
The value for `C=C(C)[C@@H]1CC[C@]2(C)CC[C@]3(C)[C@H](CC[C@@H]4[C@@]5(C)CC[C@H](OC(C)=O)C(C)(C)[C@@H]5CC[C@]43C)[C@@H]12` [LUPENYL ACETATE] was 15 µg/mL.
The value for `C=C(C)[C@@H]1CC[C@]2(C)CC[C@]3(C)[C@H](CC[C@@H]4[C@@]5(C)CC[C@H](O)C(C)(C)[C@@H]5CC[C@]43C)[C@@H]12` [LUPEOL] was 16.2 µg/mL (≈ 38 µM).
For `CC(=O)O[C@H]1CC[C@]2(C)[C@H]3CC=C4[C@@H]5CC(C)(C)CC[C@]5(C)CC[C@@]4(C)[C@]3(C)CC[C@H]2C1(C)C` [beta-AMYRIN ACETATE], the IC50 was found to be 12.1 µg/mL.
